Test results: US20240016881A1, “Coronavirus Therapy” (priority 2020, published 2024)
“And” between values parts separate entries of the source, which are not always exact repeats. Equal entries are not always repeated. Where no end group is shown, it is not given here.

Experiments:
[1] = system: buccal tissue culture inserts; assay: Buccal tissue permeability (cell permeation, HPLC peak area of supernatant); assay type: in vitro ADME
Procedure: Buccal tissue culture inserts were transferred from the original tissue culture 24-well plates (maintained at 4° C. in sealed bags containing 5% CO2) under sterile conditions into wells of a fresh 24-well plate containing 1.0 ml serum free medium pre-warmed to 37° C. The plate was incubated in a humidified incubator at 37° C. in a 5% CO2 atmosphere for one hour as a pre-equilibration procedure prior to dosing. After removal from the incubator, any culture medium over the surface of the tissue was carefully removed and replaced with 40 μL of appropriately diluted peptide solution in serum free culture medium. The plate was incubated for further 30 minutes at 37° C. in a 5% CO2 atmosphere. The plate was removed from the incubator and supernatant samples were taken and analysed by HPLC. The main peak areas of the supernatants were compared to those of the pre-incubation stock samples.
The inventor next measured buccal tissue permeability of NDX-90 peptide, to determine its uptake.

[2] = Fasting plasma glucagon in subjects with Type 2 diabetes treated with NDX-90 peptide; assay type: in vivo, human
Text: The inventor then measured the effect of NDX-90 peptide treatment over several months on fasting plasma glucagon levels in subjects with Type 2 diabetes.

[3] = system: soluble ACE2; assay: Soluble ACE2 ELISA in cultures of human islet cells from Type 2 diabetes tissue donors; assay type: cell-based; conditions: for % reduction soluble ACE2 100-(T/Cx100): vs control cultures
Procedure: The inventor next measured the effect of NDX-90 peptide on soluble ACE2 levels in cultures of human islet cells from Type 2 diabetes tissue donors. Human pancreatic islet cells were cultured in 24-well tissue culture plates. Two series of cultures were set up. NDX-90 peptide solution was added to one series and an equivalent amount of culture medium was added to the second series. Supernatant samples were removed from the test and control cultures at 4, 24 and 48 hours after addition of the treatment. Supernatant samples were removed only once from each test and control well for each time point. The samples were tested for soluble ACE2 by the use of a commercial ELISA kit according to the manufacturer's instructions.

[4] = system: isolated rat islet cultures; assay: Glucagon levels secreted from isolated rat islet cultures, medium plus NDX-90 vs medium alone; assay type: cell-based; conditions: for Glucagon level (pg/ml) Medium plus NDX-90: NDX-90 1 μg/ml, 11 mmol/L glucose; for Percentage reduction of glucagon secretion: vs medium alone
Procedure: Isolated islets were suspended in RPMI 1640 containing 11 mmol/L (200 mg/dL) glucose and 10% FCS. The glucose concentration simulates a diabetic environment. NDX-90 was dissolved in the culture medium and added to the appropriate wells at a final concentration of 1 μg/ml. After the specified incubation times, samples were removed for glucagon measurements using Quantikine ELISA Immunoassay (R&D Systems).
The inventor measured glucagon levels secreted from isolated rat islet cultures, to determine whether NDX-90 was capable of reducing glucagon levels.

[5] = ELISA binding of NDX-90 peptide to cardiolipin-coated microtitre plate
Text: Each mean and standard deviation is for three observations.

Sequence: QQYNSYPLT (also: dimer) [NDX-90, b142 says NDX-90 is a dimer]
- Transmissibility across / uptake by buccal tissue [1]: efficient uptake
- Transmissibility % ([1]; Table 5 screening, 30 minutes): 94.1%
- Peak Area by HPLC of Peptides in solution Pre-overlay ([1]; Table 5 screening, stock before incubation): 4142
- Peak Area by HPLC of Peptides in solution Post-overlay ([1]; Table 5 screening, supernatant after 30 minutes at 37° C.): 243
- Peak Area by HPLC R1 ([1]; Table 6, replicate culture 1): 276
- Transmissibility T % (R1) ([1]; Table 6, replicate culture 1): 93.3%
- Peak Area by HPLC R3 ([1]; Table 6, replicate culture 3): 0
- Transmissibility T % (R3) ([1]; Table 6, replicate culture 3): 100%
- Peak Area by HPLC Pre-overlay ([1]; Table 6 triplicate cultures, stock): 4142
- Improvement in fasting glucagon towards normality ([2]; 9.61 pg/ml relative to literature excess of 12.2 pg/ml in Type 2 diabetes vs nondiabetic controls): 78.8%
- Difference baseline vs treated fasting plasma glucagon ([2]; day 1 vs mean of days 43, 99 and 113, P = 0.009, listed as NDX-90 peptide): 9.61 pg/mL
- Baseline ± sd fasting plasma glucagon ([2]; mean baseline on day 1, n = 23, Type 2 diabetes): 103 ± 38.3 pg/mL
- Treated ± sd fasting plasma glucagon ([2]; mean of measurements on days 43, 99 and 113, n = 23, Type 2 diabetes): 93.47 ± 32.3 pg/mL
- % reduction soluble ACE2 100-(T/Cx100) ([3]; 4 hours): 5.3%
- % reduction soluble ACE2 100-(T/Cx100) ([3]; 4 hours, listed as NDX-90 Peptide): 5.3%
- % reduction soluble ACE2 100-(T/Cx100) ([3]; 24 hours): 6.25%
- % reduction soluble ACE2 100-(T/Cx100) ([3]; 24 hours, listed as NDX-90 Peptide): 6.25%
- Reduction of soluble ACE2 ([3]; 48 hours): No further reduction
- Difference (pg/ml) medium alone vs medium plus NDX-90 ([4]; 4 hours): 203.0 pg/mL
- Glucagon level (pg/ml) Medium plus NDX-90 ([4]; 4 hours): 419.3 ± 2.5 pg/mL
- Percentage reduction of glucagon secretion ([4]; 4 hours): 32% and 32.4%
- Difference (pg/ml) medium alone vs medium plus NDX-90 ([4]; 24 hours): 102.9 pg/mL
- Glucagon level (pg/ml) Medium plus NDX-90 ([4]; 24 hours): 149.6 ± 6.7 pg/mL
- Percentage reduction of glucagon secretion ([4]; 24 hours): 40.9%
- Glucagon level (pg/ml) Medium plus NDX-90 ([4]; 48 hours): 63.4 ± 1.3 pg/mL
- Percentage reduction of glucagon secretion ([4]; 48 hours): 0%
- Binding to cardiolipin [5]: has the capacity to bind to cardiolipin
- Ratio Test/Control (cardiolipin / alcohol optical density) [5]: 2.23
- Optical density reading in ELISA, cardiolipin-coated plate ([5]; mean and standard deviation for three observations): 0.254 ± 0.012
